Results reported in publication PMC8286641 (European Journal of Drug Metabolism and Pharmacokinetics, 2021).
pIC50: −log10 of the molar value.

Experiments:
ENT1 = molecular target: T1, ENT1 (Homo sapiens, UniProt Q99808); assay: Inhibition of ENT1-mediated [3H]-uridine uptake in HAP1 ENT2-KO cells; assay type: cell-based; conditions: 10 µM TKI
T1 sequence (Q99808 1-456): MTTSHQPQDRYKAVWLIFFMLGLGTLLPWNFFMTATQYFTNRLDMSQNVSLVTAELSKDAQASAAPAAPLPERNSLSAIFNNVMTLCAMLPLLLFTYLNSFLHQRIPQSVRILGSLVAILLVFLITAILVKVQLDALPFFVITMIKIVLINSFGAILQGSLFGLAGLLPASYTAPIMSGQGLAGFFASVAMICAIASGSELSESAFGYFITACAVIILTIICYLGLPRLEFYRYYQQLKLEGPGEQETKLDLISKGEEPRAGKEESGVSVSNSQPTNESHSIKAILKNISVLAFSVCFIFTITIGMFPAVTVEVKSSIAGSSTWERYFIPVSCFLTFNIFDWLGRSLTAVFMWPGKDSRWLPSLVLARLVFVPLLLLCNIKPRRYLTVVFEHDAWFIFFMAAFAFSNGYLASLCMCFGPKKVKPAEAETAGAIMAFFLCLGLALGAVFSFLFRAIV

[1] = tested on: organic anion transporter (OAT) 3 (SLC22A8); conditions: read-out: IC50 OAT3; cited from earlier work
MATE1 = conditions: read-out: IC50 MATE1; cited from earlier work
OCT2 = conditions: read-out: IC50 OCT2; cited from earlier work
MATE2-K = conditions: read-out: IC50 MATE2-K; cited from earlier work
OCT1 = conditions: cited from earlier work

## N#CC[C@H](C1CCCC1)n1cc(-c2ncnc3[nH]ccc23)cn1 [Ruxolitinib, ruxolitinib]
ENT1; HAP1-ENT2 KO cells, [3H]-uridine uptake 5 min at 37 °C
  % inhibition of ENT1 activity (mean ± SD): 34.1 ± 13.2 %
ENT1; HAP1 ENT2-KO cells
  ENT1 inhibitor class: weak (decreased ENT1 activity by less than 35% and can thus be considered as weak ENT1 inhibitors)
[1]
  pIC50: > 5.00
MATE1
  pIC50: > 5.00
OCT2
  pIC50: > 5.00
MATE2-K
  pIC50: > 5.00
OCT1
  Effect on OCT1 activity (in words): fails to alter that of OCT1
